A word on the IC50: it is the concentration needed to halve the response being measured. A lower IC50 goes with greater potency in that assay.

Molecules are shown by their SMILES. “Also recorded” adds a separate entry of the source.

The target of the assay is Serine/threonine-protein kinase B-raf (Homo sapiens, UniProt P15056). The assay can be described thus: Enzymatic BRAF Kinase Activity Assay. As for the experimental part: Small molecule inhibition of the BRAF kinases was measured using ADP-Glo assay. In the assay, […], resulting in luciferase reaction and luminescent readout with light generated proportional to the relative kinase activity. Compounds diluted in DMSO were used in 10-point, 3-fold dose curve for both assays. Final concentrations of 6 nM BRAF (CarnaBio, Cat. 09-122) or 3 nM RAF1 (CarnaBio, Cat. 09-125) and 30 nM MEK1 substrate (Millipore, Cat. 14-420) were incubated with 3 µM ATP, 10 mM MgCl2, 0.003% Brij-35, 2 mM DTT, 0.05% BSA, 1 mM EGTA, and 50 mM HEPES for 90 minutes at room temp prior to addition of ADP-Glo reagent (Promega, Cat. V9102) for 40 minutes, and detection reagent for 45 minutes. Luminescence was read on an Envision plate reader (PerkinElmer) and percent remaining activity was used to calculate IC50 using a four-parameter fit model using Dotmatics Knowledge Solutions Studies curve fitting (Dotmatics, Bishops Stortford, UK, CM23).
Serine/threonine-protein kinase B-raf, sequence (P15056 whole entry): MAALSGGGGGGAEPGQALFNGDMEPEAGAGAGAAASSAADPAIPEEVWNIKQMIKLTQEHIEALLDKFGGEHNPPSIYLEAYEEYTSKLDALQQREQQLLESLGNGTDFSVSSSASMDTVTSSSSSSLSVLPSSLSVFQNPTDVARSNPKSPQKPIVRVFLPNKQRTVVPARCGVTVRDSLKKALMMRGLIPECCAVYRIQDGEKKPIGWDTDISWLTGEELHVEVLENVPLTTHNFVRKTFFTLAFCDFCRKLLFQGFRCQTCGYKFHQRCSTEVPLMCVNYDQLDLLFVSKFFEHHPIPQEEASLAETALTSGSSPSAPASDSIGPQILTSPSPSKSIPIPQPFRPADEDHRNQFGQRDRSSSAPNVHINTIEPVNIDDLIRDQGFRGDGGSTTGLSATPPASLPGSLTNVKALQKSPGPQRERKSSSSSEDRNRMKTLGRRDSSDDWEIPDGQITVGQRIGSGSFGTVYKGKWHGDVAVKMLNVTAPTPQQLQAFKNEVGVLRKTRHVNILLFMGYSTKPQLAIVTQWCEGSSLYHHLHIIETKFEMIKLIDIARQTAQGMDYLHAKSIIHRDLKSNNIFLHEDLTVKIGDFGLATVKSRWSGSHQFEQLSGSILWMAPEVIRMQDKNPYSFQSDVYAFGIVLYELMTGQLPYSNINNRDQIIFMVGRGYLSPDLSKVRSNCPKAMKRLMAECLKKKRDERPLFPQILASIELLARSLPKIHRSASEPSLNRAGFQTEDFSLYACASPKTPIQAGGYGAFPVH
Regarding `Cc1cc(F)c(NC(=O)c2cncc(C(F)(F)F)c2)cc1-c1cc(N2CCOCC2)c2nccn2c1` [US11814384, Example 70], the IC50 result was “in the range around 5.5 nM”.
To `Cc1ccc(NC(=O)c2ccnc(C(F)(F)F)c2)cc1-c1cc(N2CCOCC2)c2nc3c(n2c1)CC(O)CC3` (configuration not stated) [US11814384, Example 34] belongs 1 to 10 nM; to `Cc1cc(F)c(NC(=O)c2ccn(C(C)(C)C)c2)cc1-c1cc(N2CCOCC2)c2nccn2c1` [US11814384, Example 43], “in the range around 5.5 nM”.
The result for `Cc1cc(F)c(NC(=O)c2cnn(C(C)(C)C(F)F)c2)cc1-c1cc(N2CCOCC2)c2nccn2c1` [US11814384, Example 124] reads “in the range around 5.5 nM”.
To `Cc1cc(F)c(NC(=O)N2CC=C(C3(C)CC3)C2)cc1-c1cc(N2CCOCC2)c2nccn2c1` [US11814384, Example 69] belongs “in the range around 5.5 nM”; to `Cc1cc(F)c(NC(=O)c2ccnc(C34CC(C3)C4)c2)cc1-c1cc(N2CCOCC2)c2nccn2c1` [US11814384, Example 188], “in the range around 5.5 nM”.
For the compound `CCc1nc2cc(-c3cc(NC(=O)c4cnc(C(C)(C)C)o4)c(F)cc3C)cc(N3CCOCC3)n2n1` [US11814384, Example 305], the IC50 entry is “in the range around 55 nM”.
With `Cc1cc(F)c(NC(=O)c2ccnc(N(C)C(F)(F)F)c2)cc1-c1cc(N2CCOCC2)c2nccn2c1` [US11814384, Example 263], the IC50 result is “in the range around 5.5 nM”.
Take `Cc1cc(F)c(NC(=O)c2ncn(C(C)(C)C)c2F)cc1-c1cc(N2CCOCC2)c2nccn2c1` [US11814384, Example 160]: the IC50 entry is “in the range around 5.5 nM”.
Regarding `Cc1cc(F)c(NC(=O)N2CCC(C(C)C(F)F)C2)cc1-c1cc(N2CCOCC2)c2nccn2c1` (configuration not stated) [US11814384, Example 87], the IC50 result is “in the range around 5.5 nM; also recorded: in the range around 55 nM”.
In turn, `Cc1cc(F)c(NC(=O)N2CC=C(C(F)(F)C(F)(F)F)C2)cc1-c1cc(N2CCOCC2)c2nccn2c1` [US11814384, Example 22] displayed an IC50 of 1 to 10 nM.
As for `Cc1nc2cc(-c3cc(NC(=O)c4cnc(C(C)(C)C)o4)c(F)cc3C)cc(N3CCOCC3)n2n1` [US11814384, Example 291], the IC50 result is “in the range around 55 nM”.
As for `Cc1cc(F)c(NC(=O)c2ccnc(N3CCCC3)c2)cc1-c1cc(N2CCOCC2)c2nccn2c1` [US11814384, Example 166], the IC50 result is “in the range around 5.5 nM”.
Regarding `Cc1cn2cc(-c3cc(C(=O)Nc4cnn(C(C)(C)C)c4F)c(F)cc3C)cc(N3CCOCC3)c2n1` [US11814384, Example 267], the IC50 entry is “in the range around 5.5 nM”.
For the compound `Cc1cc(F)c(NC(=O)c2cnn(C(C)(C)C)c2F)cc1-c1cc(N2CCOCC2)c2ncc(F)n2c1` [US11814384, Example 111], the IC50 entry was “in the range around 55 nM”.
To `Cc1cc(F)c(NC(=O)c2cn(C(C)(C)C)nn2)cc1-c1cc(N2CCOCC2)c2nccn2c1` [US11814384, Example 86] belongs “in the range around 5.5 nM”; to `Cc1cc(F)c(NC(=O)N2CCC(C(F)(F)C(F)(F)F)C2)cc1-c1cc(N2CCOCC2)c2nccn2c1` (configuration not stated) [US11814384, Example 23], 1 to 10 nM.
Take `Cc1nc2cc(-c3cc(C(=O)Nc4cnn(C(C)(C)C)c4F)c(F)cc3C)cc(N3CCOCC3)n2n1` [US11814384, Example 283]: the IC50 entry was “in the range around 5.5 nM”.
In the case of `Cc1cc(F)c(NC(=O)c2cnn(C(C)(C)C(F)(F)F)c2)cc1-c1cc(N2CCOCC2)c2nccn2c1` [US11814384, Example 136], the IC50 result was “in the range around 5.5 nM”.
Take `Cc1nc2c(N3CCOCC3)cc(-c3cc(NC(=O)c4cnn(C(C)(C)C)n4)c(F)cc3C)cn2n1` [US11814384, Example 303]: the IC50 result is “in the range around 5.5 nM”.
For the compound `Cc1cc(F)c(NC(=O)c2coc(C(C)(C)C)n2)cc1-c1cc(N2CCOCC2)c2nccn2c1` [US11814384, Example 184], the IC50 entry was “in the range around 5.5 nM”.
As to `Cc1cc(F)c(NC(=O)N2CCC(C(C)(C)C(F)(F)F)C2)cc1-c1cc(N2CCOCC2)c2nccn2c1` (configuration not stated) [US11814384, Example 74], the half-maximal inhibitory concentration (IC50) result was “in the range around 5.5 nM”.
With `Cc1nc2c(N3CCOCC3)cc(-c3cc(NC(=O)c4cnc(C(C)(C)C)o4)c(F)cc3C)cn2n1` [US11814384, Example 293], the concentration for half-maximal inhibition (IC50) result is “in the range around 5.5 nM”.
Turning to `Cc1ccc(NC(=O)c2cnc(C(C)(C)C)o2)cc1-c1cc(N2CCOCC2)c2nccn2c1` [US11814384, Example 185], the IC50 entry is “in the range around 5.5 nM”.
As to `Cc1ccc(NC(=O)c2nn(C(C)(C)C)cc2F)cc1-c1cc(N2CCOCC2)c2nccn2c1` [US11814384, Example 142], the IC50 entry is “in the range around 5.5 nM”.
To `Cc1nc2c(N3CCOCC3)cc(-c3cc(NC(=O)c4coc(C(C)(C)C)n4)c(F)cc3C)cn2n1` [US11814384, Example 294] belongs “in the range around 55 nM”.
Turning to `Cc1cc(F)c(NC(=O)c2cnn(C(C)(C)C)c2F)cc1-c1cc(N2CC3CCC(C2)O3)c2nccn2c1` [US11814384, Example 180], the IC50 result is “in the range around 5.5 nM”.
As to `Cc1cn2cc(-c3cc(NC(=O)c4cn(C(C)(C)C)cn4)c(F)cc3C)cc(N3CCOCC3)c2n1` [US11814384, Example 140], the 50% inhibitory concentration (IC50) entry is “in the range around 5.5 nM”.
As for `Cc1ccc(NC(=O)N2CC[C@@H](CC(F)(F)F)C2)cc1-c1cc(N2CC3CCC(C2)O3)c2nccn2c1` [US11814384, Example 38], the half-inhibitory concentration (IC50) entry was “in the range around 5.5 nM”.
As for `CC(C)(C)n1ncc(C(=O)Nc2cc(-c3cc(N4CCOCC4)c4nccn4c3)c(Cl)cc2F)c1F` [US11814384, Example 98], the half-maximal inhibitory concentration (IC50) result was “in the range around 5.5 nM”.
Turning to `Cc1cc(F)c(NC(=O)c2cnn(C(C)(C)C)c2F)cc1-c1cc(N2CCOCC2)n2ncnc2c1` [US11814384, Example 189], the IC50 entry was “in the range around 5.5 nM”.
On to `Cc1cc(F)c(C(=O)Nc2cnn(C(C)(C)C)c2)cc1-c1cc(N2CCOCC2)c2nccn2c1` [US11814384, Example 204], for which the IC50 result is “in the range around 5.5 nM”.
Regarding `Cc1cc(F)c(NC(=O)c2cnn(C(F)C(C)(C)F)c2)cc1-c1cc(N2CCOCC2)c2nccn2c1` (configuration not stated) [US11814384, Example 125], the half-maximal inhibitory concentration (IC50) result is “in the range around 5.5 nM”.
In the case of `Cc1cc(F)c(NC(=O)N2CC(F)C(C(C)C)C2)cc1-c1cc(N2CCOCC2)c2nccn2c1` (configuration not stated) [US11814384, Example 119], the IC50 entry is “in the range around 5.5 nM”.
As to `Cc1cc(F)c(NC(=O)N2CC[C@@H](CC(F)(F)F)C2)cc1-c1cc(N2CCOCC2)c2nccn2c1` [US11814384, Example 17], the IC50 entry was “in the range around 5.5 nM”.
The result for `Cc1cc(F)c(NC(=O)N2CC[C@@H](CC(F)(F)F)C2)cc1-c1cc(N2CCOCC2)c2nn(C)c(C)c2c1` [US11814384, Example 16] reads “in the range around 5.5 nM”; that for `O=C(Nc1cc(-c2cc(N3CCOCC3)c3nccn3c2)c(F)cc1F)N1CC[C@@H](CC(F)(F)F)C1` [US11814384, Example 99], “in the range around 55 nM”.

Values taken from BindingDB's records for patent US11814384 (Kinnate Biopharma, 2023).
